Laboratory results as given in patent publication US12077503B2, “Substituted cyclic amides and their use as herbicides” (FMC CORPORATION, priority 2015, dated 2024).

Tests used:
Type in all cases: in vivo
[1] = system: barnyardgrass (Echinochloa crus-galli); assay: Test B flooded paddy test; conditions: Flood, 250 g ai/ha; 0 to 100 scale where 0 is no effect and 100 is complete control; 13 to 15 d
Outline: (§1)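 Flooding to 3 cm over soil accompanied treatment, which consisted of adding compound to the standing water around 2-leaf plants; depth was then maintained. Visual assessment versus controls followed at 13 to 15 d (scale 0–100, 0 meaning no effect).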

[2] = system: ducksalad (Heteranthera limosa); assay: Test B flooded paddy test; conditions: Flood, 250 g ai/ha; 0 to 100 scale where 0 is no effect and 100 is complete control; 13 to 15 d
Outline: as §1

rice (Oryra sativa) = assay: Test B flooded paddy test; conditions: Flood, 250 g ai/ha; 0 to 100 scale where 0 is no effect and 100 is complete control; 13 to 15 d
Outline: as §1

[3] = system: sedge, umbrella (small-flower umbrella sedge, Cyperus difformis); assay: Test B flooded paddy test; conditions: Flood, 250 g ai/ha; 0 to 100 scale where 0 is no effect and 100 is complete control; 13 to 15 d
Outline: as §1

[4] = system: ryegrass, Italian (Italian ryegrass, Lolium multiflorum); assay: Test A preemergence; conditions: Preemergence; for Plant response rating, Ryegrass, Italian: 125 g ai/ha, visual injury after approximately 10 d, 0 to 100 scale where 0 is no effect and 100 is complete control; for Ryegrass, Italian plant response rating (0 to 100 scale, 0 is no effect, 100 is complete control): 500 g ai/ha, visual injury approx. 10 d
Outline: (§2)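 Seeded soil received test chemicals as a preemergence directed spray, and seedlings at one to two leaves, 2–10 cm tall, received them postemergence, in a non-phytotoxic, surfactant-containing solvent mixture. Pots were held in a greenhouse for approximately 10 d, then rated for injury from 0, no effect, to 100, complete control.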

[5] = system: ragweed (common ragweed, Ambrosia elatior); assay: Test A preemergence; conditions: Preemergence; for Plant response rating, Ragweed: 125 g ai/ha, visual injury after approximately 10 d, 0 to 100 scale where 0 is no effect and 100 is complete control; for Ragweed plant response rating (0 to 100 scale, 0 is no effect, 100 is complete control): 500 g ai/ha, visual injury approx. 10 d
Outline: as §2

[6] = system: pigweed (Amaranthus retroflexus); assay: Test A preemergence; conditions: Preemergence; for Plant response rating, Pigweed: 125 g ai/ha, visual injury after approximately 10 d, 0 to 100 scale where 0 is no effect and 100 is complete control; for Pigweed plant response rating (0 to 100 scale, 0 is no effect, 100 is complete control): 500 g ai/ha, visual injury approx. 10 d
[7] = system: barnyardgrass (Echinochloa crus-galli); assay: Test A preemergence; conditions: Preemergence; for Plant response rating, Barnyardgrass: 125 g ai/ha, visual injury after approximately 10 d, 0 to 100 scale where 0 is no effect and 100 is complete control; for Barnyardgrass plant response rating (0 to 100 scale, 0 is no effect, 100 is complete control): 500 g ai/ha, visual injury approx. 10 d
Outline: as §2

[8] = system: giant foxtail (Setaria faberii); assay: Test A preemergence; conditions: Preemergence; for Plant response rating, Foxtail, Giant: 125 g ai/ha, visual injury after approximately 10 d, 0 to 100 scale where 0 is no effect and 100 is complete control; for Foxtail, Giant plant response rating (0 to 100 scale, 0 is no effect, 100 is complete control): 500 g ai/ha, visual injury approx. 10 d
Outline: as §2

Kochia (Kochia scoparia) [9] = assay: Test A preemergence; conditions: Preemergence; for Plant response rating, Kochia: 125 g ai/ha, visual injury after approximately 10 d, 0 to 100 scale where 0 is no effect and 100 is complete control; for Kochia plant response rating (0 to 100 scale, 0 is no effect, 100 is complete control): 500 g ai/ha, visual injury approx. 10 d
Outline: as §2

[10] = system: wheat (Triticum aestivum); assay: Test A postemergence; conditions: for Wheat plant response rating: 125 g ai/ha, postemergence, visual injury rating on 0 to 100 scale (0 no effect, 100 complete control), approx. 10 d; for Plant response rating, Wheat: Postemergence, 500 g ai/ha, 0 to 100 scale where 0 is no effect and 100 is complete control
Text: (§3) Seeds of plant species selected from barnyardgrass (Echinochloa crus-galli), Kochia (Kochia scoparia), ragweed (common ragweed, Ambrosia elatior), ryegrass, Italian (Italian ryegrass, Lolium multiflorum), crabgrass, large (Digitaria sanguinalis), giant foxtail (Setaria faberii), green foxtail (Setaria viridis), morningglory (Ipomoea spp.), pigweed (Amaranthus retroflexus), velvetleaf (Abutilon theophrasti), wheat (Triticum aestivum), and corn (Zea mays) were planted into a blend of loam soil and sand and treated preemergence with a directed soil spray using test chemicals formulated in anon-phytotoxic solvent mixture which included a surfactant.
(§4) At the same time, plants selected from these crop and weed species and also blackgrass (Alopecurus myosuroides), and Galium (catchweed bedstraw, Galium aparine) were planted in pots containing the same blend of loam soil and sand and treated with postemergence applications of test chemicals formulated in the same manner. Plants ranged in height from 2 to 10 cm and were in the one- to two-leaf stage for the postemergence treatment. Treated plants and untreated controls were maintained in a greenhouse for approximately 10 d, after which time all treated plants were compared to untreated controls and visually evaluated for injury. Plant response ratings, summarized in Table A, are based on a 0 to 100 scale where 0 is no effect and 100 is complete control. A dash (-) response means no test result.

[11] = system: ryegrass, Italian (Italian ryegrass, Lolium multiflorum); assay: Test A postemergence; conditions: for Ryegrass, Italian plant response rating: 125 g ai/ha, postemergence, visual injury rating on 0 to 100 scale (0 no effect, 100 complete control), approx. 10 d; for Plant response rating, Ryegrass, Italian: Postemergence, 500 g ai/ha, 0 to 100 scale where 0 is no effect and 100 is complete control
Text: as §3, §4

[12] = system: ragweed (common ragweed, Ambrosia elatior); assay: Test A postemergence; conditions: for Ragweed plant response rating: 125 g ai/ha, postemergence, visual injury rating on 0 to 100 scale (0 no effect, 100 complete control), approx. 10 d; for Plant response rating, Ragweed: Postemergence, 500 g ai/ha, 0 to 100 scale where 0 is no effect and 100 is complete control
Text: as §3, §4

[13] = system: pigweed (Amaranthus retroflexus); assay: Test A postemergence; conditions: for Pigweed plant response rating: 125 g ai/ha, postemergence, visual injury rating on 0 to 100 scale (0 no effect, 100 complete control), approx. 10 d; for Plant response rating, Pigweed: Postemergence, 500 g ai/ha, 0 to 100 scale where 0 is no effect and 100 is complete control
Text: as §3, §4

[14] = system: barnyardgrass (Echinochloa crus-galli); assay: Test A postemergence; conditions: for Barnyardgrass plant response rating: 125 g ai/ha, postemergence, visual injury rating on 0 to 100 scale (0 no effect, 100 complete control), approx. 10 d; for Plant response rating, Barnyardgrass: Postemergence, 500 g ai/ha, 0 to 100 scale where 0 is no effect and 100 is complete control
Text: as §3, §4

corn (Zea mays) = assay: Test A postemergence; conditions: for Corn plant response rating: 125 g ai/ha, postemergence, visual injury rating on 0 to 100 scale (0 no effect, 100 complete control), approx. 10 d; for Plant response rating, Corn: Postemergence, 500 g ai/ha, 0 to 100 scale where 0 is no effect and 100 is complete control
Text: as §3, §4

[15] = system: Galium (catchweed bedstraw, Galium aparine); assay: Test A postemergence; conditions: for Galium plant response rating: 125 g ai/ha, postemergence, visual injury rating on 0 to 100 scale (0 no effect, 100 complete control), approx. 10 d; for Plant response rating, Galium: Postemergence, 500 g ai/ha, 0 to 100 scale where 0 is no effect and 100 is complete control
Text: as §3, §4

[16] = system: giant foxtail (Setaria faberii); assay: Test A postemergence; conditions: for Foxtail, Giant plant response rating: 125 g ai/ha, postemergence, visual injury rating on 0 to 100 scale (0 no effect, 100 complete control), approx. 10 d; for Plant response rating, Foxtail, Giant: Postemergence, 500 g ai/ha, 0 to 100 scale where 0 is no effect and 100 is complete control
Text: as §3, §4

Kochia (Kochia scoparia) [17] = assay: Test A postemergence; conditions: for Kochia plant response rating: 125 g ai/ha, postemergence, visual injury rating on 0 to 100 scale (0 no effect, 100 complete control), approx. 10 d; for Plant response rating, Kochia: Postemergence, 500 g ai/ha, 0 to 100 scale where 0 is no effect and 100 is complete control
Text: as §3, §4

[18] = system: blackgrass (Alopecurus myosuroides); assay: Test A postemergence; conditions: for Blackgrass plant response rating: 125 g ai/ha, postemergence, visual injury rating on 0 to 100 scale (0 no effect, 100 complete control), approx. 10 d; for Plant response rating, Blackgrass: Postemergence, 500 g ai/ha, 0 to 100 scale where 0 is no effect and 100 is complete control
Text: as §3, §4

| Structure (SMILES) | Plant response rating, Barnyardgrass [1] | Plant response rating, Ducksalad [2] | Plant response rating, Rice (rice (Oryra sativa)) | Plant response rating, Sedge, Umbrella [3] | Plant response rating, Ryegrass, Italian [4] | Ryegrass, Italian plant response rating (0 to 100 scale, 0 is no effect, 100 is complete control) [4] | Plant response rating, Ragweed [5] | Ragweed plant response rating (0 to 100 scale, 0 is no effect, 100 is complete control) [5] | Plant response rating, Pigweed [6] | Pigweed plant response rating (0 to 100 scale, 0 is no effect, 100 is complete control) [6] | Plant response rating, Barnyardgrass [7] | Barnyardgrass plant response rating (0 to 100 scale, 0 is no effect, 100 is complete control) [7] | Plant response rating, Foxtail, Giant [8] | Foxtail, Giant plant response rating (0 to 100 scale, 0 is no effect, 100 is complete control) [8] | Plant response rating, Kochia (Kochia (Kochia scoparia) [9]) | Kochia plant response rating (0 to 100 scale, 0 is no effect, 100 is complete control) (Kochia (Kochia scoparia) [9]) | Wheat plant response rating [10] | Plant response rating, Wheat [10] | Ryegrass, Italian plant response rating [11] | Plant response rating, Ryegrass, Italian [11] | further results |
| --- | --- | --- | --- | --- | --- | --- | --- | --- | --- | --- | --- | --- | --- | --- | --- | --- | --- | --- | --- | --- | --- |
| Cc1ccc(C2CNC(=O)C2C(=O)Nc2ccccc2F)c(F)c1 (racemic) [Compound 509] | 0 | 50 | 0 | 0 | 0 | 0 | 0 | 0 | 0 | 0 | 60 | 90 | 40 | 70 | 0 | 0 | 0 | 0 | 0 | 0 | Ragweed plant response rating [12]: 0; Plant response rating, Ragweed [12]: 0; Pigweed plant response rating [13]: 0; Plant response rating, Pigweed [13]: 0; Barnyardgrass plant response rating [14]: 60; Plant response rating, Barnyardgrass [14]: 90; Corn plant response rating (corn (Zea mays)): 0; Plant response rating, Corn (corn (Zea mays)): 0; Galium plant response rating [15]: 0; Plant response rating, Galium [15]: 40; Foxtail, Giant plant response rating [16]: 0; Plant response rating, Foxtail, Giant [16]: 40; Kochia plant response rating (Kochia (Kochia scoparia) [17]): 0; Plant response rating, Kochia (Kochia (Kochia scoparia) [17]): 20; Blackgrass plant response rating [18]: 0; Plant response rating, Blackgrass [18]: 20 |
| O=C1NCC(c2ccnc(C(F)(F)F)c2)C1C(=O)Nc1cccc(F)c1F (racemic) [Compound 514] | 50 | 100 | 20 | 0 | 20 | 60 | 0 | 30 | 0 | 40 | 90 | 90 | 90 | 90 | 0 | 50 | 30 | 40 | 20 | 40 | Ragweed plant response rating [12]: 0; Plant response rating, Ragweed [12]: 20; Pigweed plant response rating [13]: 0; Plant response rating, Pigweed [13]: 30; Barnyardgrass plant response rating [14]: 80; Plant response rating, Barnyardgrass [14]: 90; Corn plant response rating (corn (Zea mays)): 30; Plant response rating, Corn (corn (Zea mays)): 80; Galium plant response rating [15]: 40; Plant response rating, Galium [15]: 50; Foxtail, Giant plant response rating [16]: 70; Plant response rating, Foxtail, Giant [16]: 90; Kochia plant response rating (Kochia (Kochia scoparia) [17]): 30; Plant response rating, Kochia (Kochia (Kochia scoparia) [17]): 50; Blackgrass plant response rating [18]: 20; Plant response rating, Blackgrass [18]: 50 |
